Measured values from the CheMixHub viscosity set.

Assay: xn = mol fraction of the nth substance listed

CCCCOCCO + CCc1ccccc1
viscosity [mPa·s], 101 kPa
Conditions | 298.15 K | 308.15 K
x1 = 0.0546 | 0.678 | 0.568
x1 = 0.1505 | 0.769 | 0.643
x1 = 0.2513 | 0.877 | 0.732
x1 = 0.3501 | 1.003 | 0.835
x1 = 0.4528 | 1.161 | 0.961
x1 = 0.4982 | 1.24 | 1.025
x1 = 0.55 | 1.339 | 1.103
x1 = 0.6497 | 1.56 | 1.277
x1 = 0.7511 | 1.831 | 1.487
x1 = 0.8507 | 2.156 | 1.736
x1 = 0.9614 | 2.601 | 2.071

CC(C)OCCO + CN1CCCC1=O
298.15 K, 101 kPa
Conditions | viscosity [mPa·s]
x1 = 0.004 | 1.691
x1 = 0.0105 | 1.702
x1 = 0.0362 | 1.729
x1 = 0.0624 | 1.753
x1 = 0.088 | 1.764
x1 = 0.1136 | 1.779
x1 = 0.1577 | 1.814
x1 = 0.2017 | 1.843
x1 = 0.2462 | 1.882
x1 = 0.3116 | 1.929
x1 = 0.3451 | 1.955
x1 = 0.3748 | 1.969
x1 = 0.4055 | 1.989
x1 = 0.4494 | 2.011
x1 = 0.5127 | 2.045
x1 = 0.5735 | 2.073
x1 = 0.6423 | 2.096
x1 = 0.7229 | 2.118
x1 = 0.7639 | 2.134
x1 = 0.8354 | 2.127
x1 = 0.9185 | 2.12
x1 = 0.9736 | 2.109
x2 = 0.0086 | 2.107

CC(C)OCCO + CN(C)C=O
298.15 K, 101 kPa
Conditions | viscosity [mPa·s]
x1 = 0.0025 | 0.815
x1 = 0.0124 | 0.827
x1 = 0.0296 | 0.854
x1 = 0.048 | 0.885
x1 = 0.0898 | 0.932
x1 = 0.1476 | 1.006
x1 = 0.1908 | 1.066
x1 = 0.2558 | 1.142
x1 = 0.3145 | 1.213
x1 = 0.344 | 1.247
x1 = 0.3645 | 1.274
x1 = 0.4159 | 1.34
x1 = 0.4723 | 1.42
x1 = 0.52 | 1.491
x1 = 0.562 | 1.543
x1 = 0.6131 | 1.617
x1 = 0.6641 | 1.697
x1 = 0.7547 | 1.818
x1 = 0.7959 | 1.874
x1 = 0.8833 | 2.005
x1 = 0.9392 | 2.069
x1 = 0.9642 | 2.093
x2 = 0.0058 | 2.104

COC(=O)c1ccccc1 + CN(C)C=O
viscosity [mPa·s], 101.3 kPa
Conditions | x2 = 0.1213 | x2 = 0.1914 | x2 = 0.2976 | x2 = 0.3961 | x2 = 0.5284 | x2 = 0.6218 | x2 = 0.7468 | x2 = 0.8028 | x2 = 0.9311
298.15 K | 1.74 | 1.644 | 1.507 | 1.388 | 1.239 | 1.141 | 1.02 | 0.969 | 0.86
303.15 K | 1.622 | 1.536 | 1.413 | 1.306 | 1.169 | 1.078 | 0.963 | 0.915 | 0.81
308.15 K | 1.524 | 1.447 | 1.334 | 1.235 | 1.107 | 1.022 | 0.913 | 0.867 | 0.764
313.15 K | 1.305 | 1.252 | 1.173 | 1.1 | 1.003 | 0.936 | 0.848 | 0.809 | 0.721

CCNCCO + CN(C)CCO
viscosity [mPa·s], 101.3 kPa
Conditions | x1 = 0.0999 | x1 = 0.2001 | x1 = 0.3 | x1 = 0.4 | x1 = 0.4998 | x1 = 0.6001 | x1 = 0.7 | x1 = 0.8002 | x1 = 0.9
293.15 K | 3.88 | 4.63 | 5.5 | 6.48 | 7.55 | 8.66 | 9.82 | 10.97 | 12.14
303.15 K | 2.92 | 3.31 | 3.85 | 4.47 | 5.17 | 5.88 | 6.63 | 7.39 | 8.16
313.15 K | 2.18 | 2.42 | 2.8 | 3.22 | 3.71 | 4.24 | 4.78 | 5.32 | 5.84
323.15 K | 1.79 | 1.95 | 2.15 | 2.39 | 2.68 | 2.98 | 3.3 | 3.62 | 3.93

CC(C)OCCO + CO
298.15 K, 101.33 kPa
Conditions | viscosity [mPa·s]
x1 = 0.012 | 0.569
x1 = 0.0276 | 0.602
x1 = 0.05 | 0.637
x1 = 0.0732 | 0.684
x1 = 0.1063 | 0.749
x1 = 0.1319 | 0.795
x1 = 0.1558 | 0.842
x1 = 0.1871 | 0.897
x1 = 0.2119 | 0.946
x1 = 0.2575 | 1.036
x1 = 0.2683 | 1.056
x1 = 0.3161 | 1.145
x1 = 0.3643 | 1.235
x1 = 0.412 | 1.324
x1 = 0.4685 | 1.415
x1 = 0.5152 | 1.485
x1 = 0.5447 | 1.529
x1 = 0.6149 | 1.624
x1 = 0.6869 | 1.719
x1 = 0.7416 | 1.789
x1 = 0.7775 | 1.832
x1 = 0.8335 | 1.912
x1 = 0.8955 | 1.975
x1 = 0.9189 | 2.003
x1 = 0.9415 | 2.032
x1 = 0.9701 | 2.064

CCOS(=O)(=O)[O-].CC[N+](CC)=C(N(C)C)N(C)C + CO
viscosity [mPa·s], 100 kPa
Conditions | x1 = 0.1 | x1 = 0.1991 | x1 = 0.298 | x1 = 0.3949 | x1 = 0.4982 | x1 = 0.5999 | x1 = 0.6953 | x1 = 0.7999 | x1 = 0.9002
293.15 K | 1.785 | 4.501 | 9.381 | 18.38 | 32.98 | 53.59 | 80.2 | 115.6 | 153.4
298.15 K | 1.634 | 4.072 | 8.2 | 15.58 | 27.24 | 42.8 | 62.36 | 87.46 | 112.3
303.15 K | 1.504 | 3.661 | 7.163 | 13.38 | 22.82 | 34.85 | 49.55 | 67.85 | 86.71
308.15 K | 1.389 | 3.307 | 6.417 | 11.63 | 19.37 | 28.79 | 40.16 | 53.89 | 67.59
313.15 K | 1.287 | 3 | 5.724 | 10.18 | 16.65 | 24.17 | 33.08 | 43.49 | 53.73
318.15 K | 1.195 | 2.734 | 4.994 | 8.991 | 14.45 | 20.55 | 27.69 | 35.64 | 43.24
323.15 K | 1.113 | 2.5 | 4.58 | 7.999 | 12.64 | 17.68 | 23.46 | 29.74 | 35.49

COC(=O)c1ccccc1 + CO
viscosity [mPa·s], 101.33 kPa
Conditions | x1 = 0.0499 | x1 = 0.0999 | x1 = 0.2 | x1 = 0.3001 | x1 = 0.4001 | x1 = 0.4999 | x1 = 0.5999 | x1 = 0.65 | x1 = 0.8001 | x1 = 0.9001
293.15 K | 0.653 | 0.721 | 0.86 | 0.997 | 1.133 | 1.263 | 1.395 | 1.461 | 1.673 | 1.834
298.15 K | 0.608 | 0.67 | 0.796 | 0.918 | 1.041 | 1.156 | 1.273 | 1.331 | 1.518 | 1.66
303.15 K | 0.568 | 0.625 | 0.738 | 0.849 | 0.958 | 1.062 | 1.167 | 1.22 | 1.387 | 1.511
308.15 K | 0.531 | 0.584 | 0.686 | 0.786 | 0.886 | 0.98 | 1.075 | 1.122 | 1.272 | 1.385
313.15 K | 0.499 | 0.547 | 0.64 | 0.732 | 0.822 | 0.907 | 0.993 | 1.036 | 1.173 | 1.275

CCOCCOCCOCC + COC(=O)OC
viscosity [mPa·s], 101.33 kPa
Conditions | 298.15 K | 308.15 K | 318.15 K
x1 = 0.0109 | 0.604 | 0.532 | 0.48
x1 = 0.0541 | 0.641 | 0.563 | 0.502
x1 = 0.0935 | 0.677 | 0.593 | 0.523
x1 = 0.1383 | 0.718 | 0.624 | 0.546
x1 = 0.1877 | 0.76 | 0.654 | 0.571
x1 = 0.2422 | 0.808 | 0.689 | 0.604
x1 = 0.3409 | 0.886 | 0.752 | 0.651
x1 = 0.4435 | 0.959 | 0.811 | 0.697
x1 = 0.5274 | 1.021 | 0.855 | 0.727
x1 = 0.6085 | 1.072 | 0.894 | 0.761
x1 = 0.7154 | 1.136 | 0.942 | 0.798
x1 = 0.8183 | 1.189 | 0.986 | 0.831
x1 = 0.9068 | 1.229 | 1.019 | 0.857
x1 = 0.9643 | 1.258 | 1.037 | 0.872

c1ccc2c(c1)CCCC2 + COC(C)(C)C
303.15 K, 101 kPa
Conditions | viscosity [mPa·s]
x2 = 0.1289 | 1.534
x2 = 0.1851 | 1.432
x2 = 0.2839 | 1.253
x2 = 0.3506 | 1.136
x2 = 0.4458 | 0.983
x2 = 0.5017 | 0.903
x2 = 0.6257 | 0.737
x2 = 0.7392 | 0.606
x2 = 0.8539 | 0.486
x2 = 0.9246 | 0.37

COC(=O)c1ccccc1 + COCCO
viscosity [mPa·s], 101 kPa
Conditions | x2 = 0.0991 | x2 = 0.2001 | x2 = 0.3023 | x2 = 0.3992 | x2 = 0.4989 | x2 = 0.5981 | x2 = 0.699 | x2 = 0.7991 | x2 = 0.8983
298.15 K | 1.735 | 1.689 | 1.686 | 1.675 | 1.646 | 1.675 | 1.668 | 1.699 | 1.693
303.15 K | 1.571 | 1.523 | 1.524 | 1.511 | 1.478 | 1.508 | 1.5 | 1.525 | 1.522
308.15 K | 1.427 | 1.385 | 1.378 | 1.366 | 1.34 | 1.362 | 1.356 | 1.375 | 1.372

CCOC(=O)CCl + COc1ccccc1
viscosity [mPa·s], 101.3 kPa
Conditions | x1 = 0.1012 | x1 = 0.2027 | x1 = 0.3 | x1 = 0.3936 | x1 = 0.4982 | x1 = 0.6022 | x1 = 0.6954 | x1 = 0.7934 | x1 = 0.8919
298.15 K | 0.983 | 0.987 | 0.989 | 0.996 | 1.004 | 1.019 | 1.033 | 1.049 | 1.072
303.15 K | 0.915 | 0.916 | 0.918 | 0.925 | 0.932 | 0.945 | 0.958 | 0.975 | 0.993
308.15 K | 0.847 | 0.847 | 0.848 | 0.853 | 0.861 | 0.871 | 0.884 | 0.901 | 0.915

COC(=O)c1ccccc1 + COc1ccccc1
viscosity [mPa·s], 100 kPa
Conditions | x1 = 0.0898 | x1 = 0.1468 | x1 = 0.228 | x1 = 0.3145 | x1 = 0.4054 | x1 = 0.5056 | x1 = 0.6161 | x1 = 0.7316 | x1 = 0.8597
303.15 K | 0.974 | 1.038 | 1.101 | 1.187 | 1.234 | 1.307 | 1.391 | 1.48 | 1.572
308.15 K | 0.894 | 0.949 | 1.007 | 1.086 | 1.129 | 1.195 | 1.272 | 1.355 | 1.439
313.15 K | 0.8 | 0.85 | 0.902 | 0.972 | 1.012 | 1.074 | 1.144 | 1.22 | 1.301
